Source: US12187726B1, “Imidazo[1,5-a]pyrido[4,3-e]pyrazines as CK2 inhibitors” (KING FAISAL UNIVERSITY, priority 2024, dated 2025)

Experiments:
[1] = system: H1299 (lung) cancer cells; assay: MTT in vitro cytotoxic activity assay, H1299; assay type: cell-based; details: Homo sapiens, NCI-H1299; cells exposed for 96 hours; 50% inhibition of cell proliferation; read-out: Cytotoxicity activity IC50, H1299 (lung)
Description: (§1) Compounds 1-16 were screened for their in vitro cytotoxic activity utilizing a 3-(4,5-dimethyl-thiazol-2-yl)-2,5-diphenyltetrazolium bromide (MTT) assay against selected cancer human cell lines consisting of PC3 (prostate), HCT116 (colon), A375 (melanoma), H1299 (lung), MIAPaCa-2 (pancreas), HL60 (leukemia), MCF7 (breast), MDA-MB-231 (breast) (T. Mosmann, J. Immunol. Meth., 1983, 65, 55-63). The cells were cultured at 37° C. in RMPI1640 medium supplemented with 10% fetal bovine serum, 50 IU/mL penicillin, and 50 μg/mL streptomycin in a 5% CO2 incubator. All cells were sub-cultured 3 times/week by trypsinisation. Viable cells were seeded and allowed to adhere for 12 hours before a test drug was added in 96-well plates at an initial density of 1.0×10^5 cells/mL. Tumor cell lines were separately exposed to various concentrations of the tested compounds followed by incubation at a temperature of 37° C. during 96 hours inside a medium of fresh RMPI 1640. Cells were subsequently incubated at 37° C. using MTT at 0.5 mg/mL during 4 hours. After removal of supernatant, formazan crystals were dissolved in isopropanol and the optical density was measured at 570 nm. CX-4945 was used as a positive control.

[2] = system: MCF7 (breast) cancer cells; assay: MTT in vitro cytotoxic activity assay, MCF7; assay type: cell-based; details: Homo sapiens, cells exposed for 96 hours, 50% inhibition of cell proliferation, read-out: Cytotoxicity activity IC50, MCF7 (breast)
Description: as §1

[3] = biological target: T1, recombinant human CK2 (RRββ-holoenzyme) (Homo sapiens, UniProt P68400); assay: CK2 Kinase Assay (33P-ATP, filter plate); assay type: biochemical; details: final ATP concentration 15 μM; 10 min at 30° C.; read-out: protein kinase CK2 IC50
T1 construct: purchased Millipore
Description: CK2 Kinase Assay was conducted using the protocol as described in Pierre F. et al; J. Med. Chem. 2011, 54, 635-654. The tested compounds in aqueous solution were added at a volume of 10 μL to a reaction mixture comprising 10 μL of assay dilution buffer (ADB; 20 mM MOPS, pH 7.2, 25 mM β-glycerol phosphate, 5 mM EGTA, 1 mM sodium orthovanadate, and 1 mM dithiothreitol), 10 μL of substrate peptide (RRRDDDSDDD, dissolved in ADB at a concentration of 1 mM), 10 μL of recombinant human CK2 (RRββ-holoenzyme, 25 ng dissolved in ADB; Millipore). Reactions were initiated by the addition of 10 μL of ATP solution (90% 75 mMMgCl2, 75 μM ATP (final ATP concentration: 15 μM) dissolved in ADB; 10% [γ-33P] ATP (stock 1mCi/100 μL; 3000 Ci/mmol (Perkin-Elmer) and maintained for 10 min at 30° C. The reactions were quenched with 100 μL of 0.75% phosphoric acid and then transferred to and filtered through a phosphor cellulose filter plate (Millipore). After washing each well five times with 0.75% phosphoric acid, the plate was dried under vacuum for 5 min and, following the addition of 15 μL of scintillation fluid to each well, the residual radioactivity was measured using a Wallac luminescence counter. The IC50 values were derived from eight concentrations of test inhibitors.

[4] = system: MIAPaCa-2 (pancreas) cancer cells; assay: MTT in vitro cytotoxic activity assay, MIAPaCa-2; assay type: cell-based; details: Homo sapiens, MIA PaCa-2; cells exposed for 96 hours; 50% inhibition of cell proliferation; read-out: Cytotoxicity activity IC50, MIAPaCa-2 (pancreas)
Description: as §1

[5] = system: HCT116 (colon) cancer cells; assay: MTT in vitro cytotoxic activity assay, HCT116; assay type: cell-based; details: Homo sapiens, HCT-116; cells exposed for 96 hours; 50% inhibition of cell proliferation; read-out: Cytotoxicity activity IC50, HCT116 (colon)
Description: as §1

[6] = system: MDA-MB-231 (breast) cancer cells; assay: MTT in vitro cytotoxic activity assay, MDA-MB-231; assay type: cell-based; details: Homo sapiens, cells exposed for 96 hours, 50% inhibition of cell proliferation, read-out: Cytotoxicity activity IC50, MDA-MB-231 (breast)
Description: as §1

[7] = system: HL60 (leukemia) cancer cells; assay: MTT in vitro cytotoxic activity assay, HL60; assay type: cell-based; details: Homo sapiens, HL-60; cells exposed for 96 hours; 50% inhibition of cell proliferation; read-out: Cytotoxicity activity IC50, HL60 (leukemia)
Description: as §1

[8] = system: PC3 (prostate) cancer cells; assay: MTT in vitro cytotoxic activity assay, PC3; assay type: cell-based; details: Homo sapiens; cells exposed for 96 hours; 50% inhibition of cell proliferation; read-out: Cytotoxicity activity IC50, PC3 (prostate)
Description: as §1

[9] = system: A375 (melanoma) cancer cells; assay: MTT in vitro cytotoxic activity assay, A375; assay type: cell-based; details: Homo sapiens, A-375; cells exposed for 96 hours; 50% inhibition of cell proliferation; read-out: Cytotoxicity activity IC50, A375 (melanoma)
Description: as §1

T1 sequence (P68400 whole entry): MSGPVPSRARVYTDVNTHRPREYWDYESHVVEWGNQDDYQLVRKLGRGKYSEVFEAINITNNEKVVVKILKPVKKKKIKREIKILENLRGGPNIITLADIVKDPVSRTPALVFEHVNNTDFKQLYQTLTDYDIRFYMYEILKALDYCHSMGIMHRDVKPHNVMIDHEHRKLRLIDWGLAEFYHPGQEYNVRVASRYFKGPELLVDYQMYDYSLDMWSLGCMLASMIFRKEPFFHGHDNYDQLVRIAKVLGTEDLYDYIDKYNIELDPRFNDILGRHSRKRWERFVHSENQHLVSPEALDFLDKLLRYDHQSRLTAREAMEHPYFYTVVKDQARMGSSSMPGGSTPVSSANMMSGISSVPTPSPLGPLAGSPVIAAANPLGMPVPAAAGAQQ
T1 sequence (P67870 whole entry partner): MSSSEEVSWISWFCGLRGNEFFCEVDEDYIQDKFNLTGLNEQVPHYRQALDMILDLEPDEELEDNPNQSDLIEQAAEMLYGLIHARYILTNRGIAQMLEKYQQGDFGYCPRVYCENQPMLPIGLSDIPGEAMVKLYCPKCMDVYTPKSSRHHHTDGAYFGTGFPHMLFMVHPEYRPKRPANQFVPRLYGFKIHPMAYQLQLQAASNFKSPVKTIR

In the case of `O=C(O)c1ncn2c1c(Nc1cccc(Cl)c1)nc1ccncc12` [Compound 1, 4-((3-chlorophenyl)amino) imidazo[1,5-a]pyrido[4,3-e]pyrazine-3-carboxylic acid], the IC50 [1] is reported as 2.5 µM, the IC50 [2] is reported as 5.9 µM and the IC50 [3] is reported as 0.036 µM. The IC50 [4] was 1.1 µM, the IC50 [5] was 1.8 µM and the IC50 [6] was 5.2 µM. It also gave an IC50 [7] of 2.6 µM, an IC50 [8] of 2.1 µM and an IC50 [9] of 3.3 µM.
